Legend:
CXCR4 = biological target: T1, CXCR4 (Homo sapiens, UniProt P61073); experiment: Flow based competitive binding assay, anti-CXCR4 antibody binding to Raji cells; conditions: phycoerythrin-conjugated anti-CXCR4 antibody
T1 construct: host or cells: Raji cells
Experimental: FIG. 21 relates to an experiment carried out to determine the competitive binding activity (IC50) of GMI-1359 against E-selectin and CXCR4. GMI-1359 was assessed for inhibition of sialyl Le^X binding to immobilized E-selectin and α-CXCR4 antibody binding to Raji cells.
The inhibition assay to screen GMI-1359 as an antagonist of CXCR4 was a flow based competitive binding assay, which allowed the determination of […] values. Raji cells (ATCC number TIB-152) were washed twice with Hanks Balanced Saline Solution (HBSS) containing 0.05% bovine serum albumin (BSA). After the second wash, the cells were resuspended to about 2.5×10^6 cells per mL and 80 μl of cells (approximately 2×10^5 cells) were added to BD 2063 tubes. Next, 10 μl of either GMI-1359 or HBSS/BSA (as a negative control) were added to the cells and the tube was placed at room temperature for 10 minutes. Then, 10 μl of a phycoerythrin-conjugated anti-CXCR4 antibody (R&D Systems, FAB170P) or as a negative control, 10 μl of an isotype control antibody (R&D Systems, IC003P) was added to the cells with HBSS/BSA. The antibodies were allowed to bind to the cells for 1 hour at 4° C. […] Binding of the anti-CXCR4-PE antibody to the cells was assessed by flow cytometry, and the median fluorescent intensity was determined. […]

[1] = system: T-Cells (CD4+ and CD8+), Tregs, MDSCs and checkpoint markers in tumors and spleens; experiment: Flow cytometry immune profile of tumors and spleens, Day 15; type: in vivo, Balb/c mice
Experimental: The anti-cancer activity of an anti-mPD-L1 antibody (10F.9G2) and GMI-1359 was compared to a rat isotype control antibody against indeterminate subcutaneous CT26.WT carcinoma xenografts in female Balb/c mice. An immune profile of each mouse was determined by sampling tumors and spleens, staining for several markers of an active immune response, and detecting the levels of these markers via flow cytometry. Flow cytometry markers included: T-Cells (CD4^+ and CD8^+), Regulatory T-Cells (Tregs). (CD4^+/CD25^+/FoxP3^+), MDSCs (CD11b^+/Gr1^+) and co-expression of CCR7^+ and CD62^+ added to the existing CD4/CD8 panel.
At 24 hours after the final dose of GMI-1359 (Day 15), all mice from Groups 7-12 were euthanized for tumor and spleen collection. All mice were euthanized via over exposure to carbon dioxide. The tumors and spleens were excised and placed in a labeled 5 mL sampling tube filled with cold PBS and placed on ice. The tumors and spleens were provided to the Molecular Imaging's in vitro group for flow cytometric analysis.
For tumor dissociation, the tumor was weighed and <1 g tissue was processed according to Miltenyi Tumor Dissociation Protocol 2.2.1, Dissociation of soft tumors, before proceeding to the red blood cell lysis.
For spleen dissociation, the plunger on a 3 mL syringe was used to crush the spleen in 10 mL DPBS until organ was well broken up and the DPBS became cloudy with cells. The cell suspension was then filtered with a 70 μm strainer on a 50 mL tube and washed with 20 mL DPBS. The suspension was then centrifuged for 7 minutes at 300 rcf and the supernatant was discarded before proceeding the red blood cell lysis.
For the red blood cell lysis, each of the tumor and spleen samples were re-suspended in 3 mL ACK Lysis Buffer and then incubated for 5 minutes at room temperature. The suspension was diluted by adding 10 mL DPBS, and then the cells were collected via centrifugation for 5 minutes at 300 rcf. The cells were again re-suspended in 30 mL DPBS and counted. The suspension was centrifuged again, and the supernatant was discarded before proceeding to the Fc block.
For the Fc block, each of the tumor and spleen samples were re-suspended at 1E+06 cells per 100 μL in Flow Cytometry Staining buffer with 1 μL Fc block per 1E+06 cells. The suspensions were incubated for 5 minutes at room temperature, then centrifuged for 5 minutes at 300 rcf, and the supernatant was removed before proceeding to surface staining.
For the surface staining, the following antibody dilutions were prepared, 50 μL per reaction in Flow Cytometry Staining Buffer (except FoxP3):
For surface staining, the tumor and spleen cells were re-suspended at 1E+06 cells per 50 μL. Each of the 50 μL cell suspensions containing 1E+06 cells was added to 50 μL antibodies diluted in staining buffer in round-bottom 96-well plate. The plate was incubated for 30 minutes in the dark at room temperature on the orbital shaker, setting 2.5. The samples were diluted by adding 200 μL Flow Cytometry Staining Buffer and then centrifuged for 5 minutes at 300 rcf. The supernatant was aspirated and the cells were washed wash by re-suspending in 250 μL Flow Cytometry Staining Buffer and spinning. If staining for intracellular markers, after washing, the sample was then prepared according to the intracellular staining procedure described below. The samples were then re-suspended in 250 μL Flow Cytometry Staining Buffer and were ready for Flow Cytometry Analysis.
When staining for intracellular markers, following the wash step, the cells were re-suspended in 200 μL FoxP3 Fixation/Permeabilization working solution and incubated for 30 minutes in the dark at room temperature. The samples were then centrifuged at 400 rcf for 5 minutes at room temperature, then the supernatant was discarded. 200 μL 1× permeabilization buffer was added to each well. The samples were centrifuged at 400 rcf for 5 minutes at room temperature, then the supernatant was discarded. […]

T1 sequence (P61073 whole entry): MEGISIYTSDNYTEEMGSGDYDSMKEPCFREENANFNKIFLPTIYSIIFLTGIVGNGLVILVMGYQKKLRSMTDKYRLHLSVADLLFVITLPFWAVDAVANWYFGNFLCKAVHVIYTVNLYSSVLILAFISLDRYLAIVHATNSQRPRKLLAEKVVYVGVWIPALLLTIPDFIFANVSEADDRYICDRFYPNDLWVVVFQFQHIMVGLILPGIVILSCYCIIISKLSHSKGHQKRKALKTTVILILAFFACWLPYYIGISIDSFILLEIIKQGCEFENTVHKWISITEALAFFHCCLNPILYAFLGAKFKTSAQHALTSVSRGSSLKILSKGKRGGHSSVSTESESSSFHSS

CCC1CC(C(=O)NCCNCc2ccc(CN3CCCNCCNCCCNCC3)c(Br)c2)CC(OC2OC(CO)C(O)C(O[C@@H](CC3CCCCC3)C(=O)O)C2NC(C)=O)C1OC1OC(C)C(O)C(O)C1O (stereo partly shown) [GMI-1359]
inhibition of anti-CXCR4 antibody binding (CXCR4): inhibits ligand binding | average percentage of CCR7^+/CD62L^+ cells within the CD8^+ T-cell population in spleens ([1]; spleens, Day 15, Groups 8-12): 1.00% | average percentage of CD4^+ T-cells expressing CCR7 but not CD62L in spleens ([1]; spleens, Day 15, Groups 8-12): 33.36% | average percentage of CD4^+ T-cells expressing CD62L but not CCR7 in spleens ([1]; spleens, Day 15, Groups 8-12): 5.42% | average percentage of CD4^+ T-cells expressing both CCR7 and CD62L in spleens ([1]; spleens, Day 15, Groups 8-12): 2.05% | average percentage of CD4^+ cells in spleens ([1]; spleens, Day 15, Groups 8-12): 13.43% | average percentage of CD8^+ T-cells expressing CCR7 but not CD62L in spleens ([1]; spleens, Day 15, Groups 8-12): 27.95% | average percentage of CD8^+ T-cells expressing CD62L but not CCR7 in spleens ([1]; spleens, Day 15, Groups 8-12): 2.94% | average percentage of CD8^+ cells in spleens ([1]; spleens, Day 15, Groups 8-12): 8.77% | average percentage of MDSCs in spleens ([1]; spleens, Day 15, Groups 8-12): 3.70% | average percentage of Tregs in spleens ([1]; spleens, Day 15, Groups 8-12): 10.00% | average percentage of cells expressing CTLA-4 in spleens ([1]; spleens, Day 15, Groups 8-12): 12.31% | average percentage of cells expressing PD-1 in spleens ([1]; spleens, Day 15, Groups 8-12): 5.53% | average percentage of cells expressing PD-L1 in spleens ([1]; spleens, Day 15, Groups 8-12): 81.50% | percentage of CD4^+/CCR7^+/CD62L^+ cells in spleens, change ([1]; spleens, Day 15, compared to vehicle, GMI-1359 or isotype control antibody, respectively): did not | average percentage of (CD4^+) cells expressing CD62L but not CCR7 in tumors ([1]; tumors, Day 15, Groups 8-12): 31.43% | average percentage of CCR7^+/CD62L^+ cells within the CD8^+ T-cell population in tumors ([1]; tumors, Day 15, Groups 8-12): 25.84% | average percentage of CD4^+ T-cells expressing both CCR7 and CD62L in tumors ([1]; tumors, Day 15, Groups 8-12): 25.32% | average percentage of CD8^+ cells in tumors ([1]; tumors, Day 15, Groups 8-12): 15.61% | average percentage of cells expressing CTLA-4 in tumors ([1]; tumors, Day 15, Groups 8-12): 42.80% | average percentage of cells expressing PD-1 in tumors ([1]; tumors, Day 15, Groups 8-12): 23.39% | average percentage of cells expressing PD-L1 in tumors ([1]; tumors, Day 15, Groups 8-12): 34.44% | average percentage of myeloid-derived suppressor cells (MDSCs) in tumors ([1]; tumors, Day 15, Groups 8-12): 2.66% | average percentage of regulatory T-cells (Tregs) in tumors ([1]; tumors, Day 15, Groups 8-12): 2.93% | detection of CD4^+/CCR7^+/CD62L^− and CD8^+/CCR7^+/CD62L^− populations in tumor samples ([1]; tumors, Day 15, Groups 8-12): Neither CD4^+/CCR7^+/CD62L^− nor CD8^+/CCR7^+/CD62L^− populations were detected | percentage of CD8^+ T-cells expressing CD62L but not CCR7 in tumors ([1]; tumors, Day 15, Groups 8-12): 25.65% | average percentage of CD4^+ cells in tumors ([1]; tumors, Day 15, Groups 8-12 (GMI-1359 40 mg/kg IP Days 3-14, antibody 10 mg/kg IP Days 3,6,10,13)): 7.02% | percentage of Treg among tumor infiltrating cells (summary comparison) ([1]; tumors, Day 15, groups 8, 10, 12, saline group 7 3.3%): 2.9%
